What was measured:
[1] = biological target: cIAP-1 BIR-3 (Homo sapiens, UniProt Q13490); assay: Fluorescence polarization binding affinity to cIAP-1 BIR-3 (competition with AbuRPF-K(5-Fam)-NH2); conditions: 5 nM labeled peptide, 40 nM BIR3, 15 min at RT, pH 7.5; reported as ranges; read-out: KD (c-IAP-1 BIR3)
Outline: (§1)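 Test peptides at varied concentrations competed with 5 nM fluorescent Smac-mimetic tracer for 40 nM BIR3 domain, 15 min at RT in 0.1M potassium phosphate pH 7.5 with […] bovine g-globulin. Polarization (mP) read at 485/520 nm; KD reported in bins (A=<0.1 μM, B=0.1–1 μM, C>1–10 μM, D=>10 μM).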

[2] = biological target: T1, XIAP BIR-3 (Homo sapiens, UniProt P98170); assay: Fluorescence polarization binding affinity to XIAP BIR-3 (competition with AbuRPF-K(5-Fam)-NH2); conditions: 5 nM labeled peptide, 40 nM BIR3, 15 min at RT, pH 7.5; reported as ranges
T1 construct: 40 nM of the respective IAP BIR3
T1 sequence (P98170 241-356 limits assumed): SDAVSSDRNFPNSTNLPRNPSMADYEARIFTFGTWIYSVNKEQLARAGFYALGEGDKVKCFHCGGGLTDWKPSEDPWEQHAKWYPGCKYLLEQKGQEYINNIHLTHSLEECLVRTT
Outline: as §1

[3] = test system: SK-OV-3 cells; assay: Growth inhibition of ovarian cancer cell line SK-OV-3 (MTT assay, cell survival); type: cell-based; conditions: Homo sapiens, drug concentration that results in 50% cell survival, 72 hrs incubation, reported as ranges
Outline: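 After overnight seeding in McCoy's medium with 10% FBS, SK-OV-3 cells were exposed to compound at 0.003-10 μM for 72 hrs at 37° C. MTT was then added for 3 h, with DMSO solubilization and OD read at 535 nm. CC50 is the concentration giving 50% survival relative to untreated control, reported as ranges.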

cIAP-1 BIR-3, sequence (Q13490 266-352 limits assumed): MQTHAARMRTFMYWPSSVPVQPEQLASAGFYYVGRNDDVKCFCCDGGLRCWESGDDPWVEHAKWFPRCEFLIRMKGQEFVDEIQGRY

| SMILES | Kd [1] [µM] | Kd [2] [µM] | CC50 [3] [µM] |
| --- | --- | --- | --- |
| CN[C@@H](C)C(=O)N[C@H](C(=O)N1CC[C@@H]2[C@H]1[C@H](c1c[nH]c3cc(F)ccc13)CN2S(C)(=O)=O)C(C)(C)C [Example 49, N-{1-[6-(6-Fluoro-1H-indol-3-yl)-4-methanesulfonyl-hexahydro-pyrrolo[3,2-b]pyrrole-1-carbonyl]-2,2-dimethyl-propyl}-2-methylamino-propionamide] | 0.1 to 1 | 1 to 10 | > 10 |
| CN[C@@H](C)C(=O)N[C@H](C(=O)N1CC[C@@H]2[C@H]1[C@H](c1c[nH]c3cc(F)ccc13)CN2C(C)=O)C1CCCCC1 [Example 96] | 0.1 to 1 | 1 to 10 | 1 to 10 |
| CC[C@H](NC(=O)[C@H](C)NC)C(=O)N1CC[C@@H]2[C@H]1[C@H](c1c[nH]c3cc(F)ccc13)CN2Cc1ccccc1 [Example 106] | 0.1 to 1 | > 10 | 1 to 10 |
| CN[C@@H](C)C(=O)N[C@H](C(=O)N1CC[C@@H]2[C@H]1[C@@H](c1c[nH]c3ccc(F)cc13)CN2C(C)=O)C1CCCCC1 [Example 70, N-{2-[4-Acetyl-6-(5-fluoro-1H-indol-3-yl)-hexahydro-pyrrolo[3,2-b]pyrrol-1-yl]-1-cyclohexyl-2-oxo-ethyl}-2-methylamino-propionamide] | < 0.1 | < 0.1 | < 0.1 |
| CN[C@@H](C)C(=O)N[C@H](C(=O)N1CC[C@@H]2[C@H]1[C@H](c1c[nH]c3cc(F)ccc13)CN2S(C)(=O)=O)C(C)C [Example 47, N-{1-[6-(6-Fluoro-1H-indol-3-yl)-4-methanesulfonyl-hexahydro-pyrrolo[3,2-b]pyrrole-1-carbonyl]-2-methyl-propyl}-2-methylamino-propionamide] | 0.1 to 1 | 0.1 to 1 | > 10 |
| CC(=O)N1C[C@H](c2c[nH]c3cc(F)ccc23)[C@@H]2[C@H]1CCN2C(=O)[C@@H](NC(=O)[C@H](C)N)C1CCCCC1 [Example 94] | < 0.1 | < 0.1 | 1 to 10 |
| CN[C@@H](C)C(=O)N[C@H](C(=O)N1CC[C@@H]2[C@H]1[C@@H](c1c[nH]c3cc(F)ccc13)CN2Cc1cccnc1)C1CCCCC1 [Example 25, N-{1-Cyclohexyl-2-[6-(6-fluoro-1H-indol-3-yl)-4-pyridin-3-ylmethyl-hexahydro-pyrrolo[3,2-b]pyrrol-1-yl]-2-oxo-ethyl}-2-methylamino-propionamide] | < 0.1 | < 0.1 | 0.1 to 1 |
| CN[C@@H](C)C(=O)N[C@@H](CO)C(=O)N1CC[C@H]2NC[C@H](c3c[nH]c4cc(F)ccc34)[C@H]21 [Example 33, N-{2-[6-(6-Fluoro-1H-indol-3-yl)-hexahydro-pyrrolo[3,2-b]pyrrol-1-yl]-1-hydroxymethyl-2-oxo-ethyl}-2-methylamino-propionamide] | < 0.1 | < 0.1 | 1 to 10 |
| CN[C@@H](C)C(=O)N[C@H](C(=O)N1CC[C@@H]2[C@H]1CCN2C(=O)OCc1ccccc1)C1CCCCC1 [Example 108, 4-[2-Cyclohexyl-2-(2-methylamino-propionylamino)-acetyl]hexahydro-pyrrolo[3,2-b]pyrrole-1-carboxylic acid benzyl ester] | < 0.1 | 1 to 10 | 0.1 to 1 |
| CN[C@@H](C)C(=O)N[C@H](C(=O)N1CC[C@@H]2[C@H]1[C@H](c1c[nH]c3cc(F)ccc13)CN2S(C)(=O)=O)[C@@H](C)OC [Example 57, N-{1-[6-(6-Fluoro-1H-indol-3-yl)-4-methanesulfonyl-hexahydro-pyrrolo[3,2-b]pyrrole-1-carbonyl]-2-methoxy-propyl}-2-methylamino-propionamide] | 0.1 to 1 | > 10 | > 10 |
| CN[C@@H](C)C(=O)N[C@H](C(=O)N1C[C@@H](O)[C@@H]2[C@H]1[C@@H](c1c[nH]c3cc(F)ccc13)CN2C(=O)OCc1ccccc1)C1CCCCC1 [Example 84, 4-[2-Cyclohexyl-2-(2-methylamino-propionylamino)-acetyl]-3S-(6-fluoro-1H-indol-3-yl)-6-hydroxy-hexahydro-pyrrolo[3,2-b]pyrrole-1-carboxylic acid benzyl ester] | < 0.1 | < 0.1 | < 0.1 |
| CN[C@@H](C)C(=O)N[C@H](C(=O)N1CC[C@@H]2[C@H]1[C@@H](c1c[nH]c3ccc(F)cc13)CN2C(C)=O)[C@@H](C)O [Example 74, N-{1-[4-Acetyl-6-(5-fluoro-1H-indol-3-yl)-hexahydro-pyrrolo[3,2-b]pyrrole-1-carbonyl]-2-hydroxy-propyl}-2-methylamino-propionamide] | < 0.1 | < 0.1 | 0.1 to 1 |
| CN[C@@H](C)C(=O)N[C@H](C(=O)N1CC[C@@H]2[C@H]1[C@@H](c1c[nH]c3cc(F)ccc13)CN2C(C)=O)C(C)(C)C [Example 62, N-{1-[4-Acetyl-6-(6-fluoro-1H-indol-3-yl)-hexahydro-pyrrolo[3,2-b]pyrrole-1-carbonyl]-2,2-dimethyl-propyl}-2-methylamino-propionamide] | < 0.1 | < 0.1 | < 0.1 |
| CN[C@@H](C)C(=O)N[C@H](C(=O)N1CC[C@@H]2[C@H]1[C@@H](c1c[nH]c3cc(F)ccc13)CN2C1CCCC1)C1CCCCC1 [Example 9, N-{1-Cyclohexyl-2-[4-cyclopentyl-6-(6-fluoro-1H-indol-3-yl)-hexahydro-pyrrolo[3,2-b]pyrrol-1-yl]-2-oxo-ethyl}-2-methylamino-propionamide] | < 0.1 | 0.1 to 1 | < 0.1 |

The next lines start with results.

| Kd [1] [µM] | Kd [2] [µM] | SMILES | CC50 [3] [µM] |
| --- | --- | --- | --- |
| < 0.1 | < 0.1 | CN[C@@H](C)C(=O)N[C@H](C(=O)N1CC[C@@H]2[C@H]1[C@@H](c1c[nH]c3cc(F)ccc13)CN2C(=O)OC)C1CCCCC1 [Example 36, 4-[2-Cyclohexyl-2-(2-methylamino-propionylamino)-acetyl]-3-(6-fluoro-1H-indol-3-yl)-hexahydro-pyrrolo[3,2-b]pyrrole-1-carboxylic acid methyl ester] | < 0.1 |
| < 0.1 | < 0.1 | CC[C@H](NC(=O)[C@H](C)NC)C(=O)N1CC[C@@H]2[C@H]1[C@@H](c1c[nH]c3ccc(F)cc13)CN2C(C)=O [Example 67, N-{1-[4-Acetyl-6-(5-fluoro-1H-indol-3-yl)-hexahydro-pyrrolo[3,2-b]pyrrole-1-carbonyl]-propyl}-2-methylamino-propionamide] | 0.1 to 1 |
| < 0.1 | < 0.1 | CN[C@@H](C)C(=O)N[C@H](C(=O)N1CC[C@H]2NC[C@H](c3c[nH]c4ccccc34)[C@H]21)C1CCCCC1 [Example 2, N-{1S-Cyclohexyl-2-[(3aR,6aR)-6S-(1H-indol-3-yl)-hexahydro-pyrrolo[3,2-b]pyrrol-1-yl]-2-oxo-ethyl}-2S-methylamino-propionamide] | 0.1 to 1 |
| < 0.1 | < 0.1 | CN[C@@H](C)C(=O)N[C@H](C(=O)N1CC[C@@H]2[C@H]1[C@@H](c1c[nH]c3cc(F)ccc13)CN2C(C)=O)C1CCCCC1 [Example 59, N-{2-[4-Acetyl-6-(6-fluoro-1H-indol-3-yl)-hexahydro-pyrrolo[3,2-b]pyrrol-1-yl]-1-cyclohexyl-2-oxo-ethyl}-2-methylamino-propionamide] | < 0.1 |
| < 0.1 | 0.1 to 1 | CC[C@H](NC(=O)[C@H](C)NC)C(=O)N1CC[C@@H]2[C@H]1[C@@H](c1c[nH]c3cc(F)ccc13)CN2c1ncccn1 [Example 78, N-{1-[6-(6-Fluoro-1H-indol-3-yl)-4-pyrimidin-2-yl-hexahydro-pyrrolo[3,2-b]pyrrole-1-carbonyl]-propyl}-2-methylamino-propionamide] | < 0.1 |
| < 0.1 | < 0.1 | CN[C@@H](C)C(=O)N[C@H](C(=O)N1CC[C@@H]2[C@H]1[C@@H](c1c[nH]c3cc(F)ccc13)CN2c1ncccn1)[C@@H](C)OC [Example 83, N-{1-[6-(6-Fluoro-1H-indol-3-yl)-4-pyrimidin-2-yl-hexahydro-pyrrolo[3,2-b]pyrrole-1-carbonyl]-2-methoxy-propyl}-2-methylamino-propionamide] | < 0.1 |
| < 0.1 | < 0.1 | CN[C@@H](C)C(=O)N[C@@H](CO)C(=O)N1CC[C@@H]2[C@H]1[C@@H](c1c[nH]c3ccc(F)cc13)CN2C(C)=O [Example 73, N-{2-[4-Acetyl-6-(5-fluoro-1H-indol-3-yl)-hexahydro-pyrrolo[3,2-b]pyrrol-1-yl]-1-hydroxymethyl-2-oxo-ethyl}-2-methylamino-propionamide] | 1 to 10 |
| < 0.1 | < 0.1 | CN[C@@H](C)C(=O)N[C@H](C(=O)N1CC[C@@H]2[C@H]1[C@@H](c1c[nH]c3cc(F)ccc13)CN2Cc1ccccn1)C1CCCCC1 [Example 24, N-{1-Cyclohexyl-2-[6-(6-fluoro-1H-indol-3-yl)-4-pyridin-2-ylmethyl-hexahydro-pyrrolo[3,2-b]pyrrol-1-yl]-2-oxo-ethyl}-2-methylamino-propionamide] | < 0.1 |

From patent US8399683B2 (TetraLogic Pharmaceuticals, priority 2008, dated 2013)
